Here are results for 4 substances from patent publication US5491220A, “Surface loop structural analogues of fibroblast growth factors” (Yeda Research and Development Co., Ltd., priority 1994, dated 1996).

Test [1] concerns FGF receptor on BHK cells. The test can be described thus: Competition for 125I-FGF-2 binding to baby hamster kidney (BHK) cells. As to conditions: 50 pM 125I-FGF-2; compared with FGF-2. As to the method:
FGF-2LI and FGF-2LA are tested for their capacity to compete for the binding of ^125 I-FGF-2 (Amersham Corp.) to baby hamster kidney (BHK) cells, which express high numbers of FGF receptor. The assay employed is described by Moscatelli (J. Cell. Physiol. 131: 123-130 (1987)). Briefly stated, BHK cells plated on 24-well plates are incubated with 50 pM ^125 I-FGF-2 with serial dilutions of unlabelled FGF-2, FGF-2LI or FGF-2LA loop mutants at room temperature for 1 hour or at 4° C. for 2 hours. The cells are then incubated at 4° C. for 30 minutes, washed twice with phosphate-buffered saline and treated with 20 mM HEPES (N-2-hydroxyethyl-piperazine-N'-2-ethanesulfonic acid), pH 7.5, containing 2M NaCl to remove ^125 I-FGF-2 bound to low affinity heparin sulfate binding sites. Receptor bound ^125 I-FGF-2 is recovered by treatment of the cells with 0.5% Triton X-100 in 0.1M sodium phosphate, pH 8, and counted in a γ-counter. Assays are conducted in duplicate.

The test system of test [2] is soluble FGF receptor 1 (FGFR-1; flg). The test can be described thus: Competition binding to soluble FGFR1 (displacement of 125I-FGF-2). More on the design: species or system murine. As to conditions: 200 ng/ml heparin. As to the method: (§1) Binding of FGF proteins to different FGF receptors are determined in this example, by measuring the degree of competition for binding to different types of FGF-receptor proteins between a radioiodinated FGF protein and various unlabelled proteins, or by the direct binding of radioiodinated FGF's to various receptor proteins. Binding studies are confirmed by chemical cross-linking of the radioiodinated FGF to soluble receptors in the presence and absence of excess unlabelled FGF.
(§2) Soluble FGF receptor proteins are constructed by cloning of the extracellular region of murine FGF receptor 1 (FGFR-1; flg), FGF receptor 2 (FGFR-2; bek) or the KGF receptor (FGFR(IIIb); K-sam) into the alkaline phosphatase-tag expression vector, which encodes for a secreted form of placental alkaline phosphatase (AP). The FGF receptor alkaline phosphatase (FRAP) plasmids are cotransfected into NIH 3T3 cells by electroporation with a selectable neomycin resistance gene. Clonies are selected in G418 (600 μg/ml) and screened for secreted AP enzyme activity in the conditioned medium. Clones of each receptor which produced a high level of AP activity (2 to 4 A405 units/min/ml) are then used to produce conditioned medium for binding assays.
(§3) Components of the soluble receptor binding reaction mixture include FRAP-conditioned medium (0.24 OD units/min), 2 ng/ml^125 I-FGFs and 200 ng/ml heparin. The FGF:heparin:FRAP terniary complex is immunoprecipitated with 20 μl of a 1:1 slurry of anti-AP monoclonal antibodies coupled to protein A Sepharose®. All components are mixed at room temperature. The total volume is adjusted to 200 μl by addition of DMEM containing 0.1% bovine serum albumin. Binding is allowed to proceed for 1 to 2 hours at 24° C., after which time bound receptor complex or the ligand is recovered by centrifugation at 4° C. (10 s at 2,000×g). The pelleted material is washed twice with 500 μl of an ice cold buffer containing HEPES (20 mM), NaCl (150 mM), glycerol (10%) and Triton® X-100 (1%). ^125 I-FGF binding is quantitated by counting of the samples in a gamma counter (LKB). Alternatively, AP enzyme activity of the FRAP protein is determined by transferring the FRAP receptor bound to […] to a flat-bottom microtiter plate in a volume of 50 μl of PBS. The reaction is initiated by addition of substrate (50 μl of 2× solution of AP assay buffer containing 2M diethanoiamine, 1 mM MgCl2, 20 mM homoarginine and 12 mM p-nitrophenyl phosphate). The reaction is followed at room temperature at 405 nm in a kinetic microplate reader.
For orientation: In a radioligand displacement assay an active substance lowers the binding of a labelled ligand.

Test [3] concerns FGFR2(IIIb) (FGF-7 or KGF receptor). In words: Competition binding to soluble FGFR2(IIIb) (displacement of 125I-FGF-7). More on the design: species or system murine. As to conditions: 200 ng/ml heparin. As to the method: as §1, §2, §3
In another test the test system is FGFR1. In words: Chemical cross-linking of 125I-FGF to soluble FGFR1. Format: binding, murine. The conditions noted are these: with and without excess unlabelled FGF. As to the method: as §1, §2
(§4) Chemical cross-linking experiments are carried out at room temperature in a volume of 20 μl in siliconized 0.5-ml microcentrifuge tubes. The reaction mixtures contain FGF receptor immobilized to anti-AP monoclonal antibodies coupled to protein A Sepharose®, 200 ng/ml heparin, 2 ng/ml^125 I-bFGF, 20 mM phosphate buffer (pH 7.4), and 140 mM NaCl. After a 90 minute incubation, […] of a solution of disuccinimidyl suberate (Pierce) dissolved in dimethyl sulfoxide is added to give a final concentration of 0.15 mM, and the mixture incubated for an additional 30 minutes. The reaction is quenched by addition of […] of 200 mM ethanolamine-HCl (pH 8.0) for 30 min. The reaction mixtures are diluted 1:1 with 2× SDS-polyacrylamide gel electrophoresis loading buffer and electrophoresed on an SDS-12% polyacrylamide gel. Cross-linked FGF to the FGF receptor are detected by autoradiography on Kodak XAR film.

The subject of a further test is FGFR2(IIIb). The test can be described thus: Chemical cross-linking of 125I-FGF to soluble FGFR2(IIIb). The conditions noted are these: with and without excess unlabelled FGF. Format: binding, murine. The protocol: as §1, §2, §4
The nature of test [4]: Affinity for immobilized heparin (NaCl elution from heparin column). Format: binding. The protocol: Cells from 1 liter cultures are harvested by centrifugation, resuspended in 30 ml of 50 mM Tris-HCl, pH 7.5 containing 0.1 mM EDTA and 0.6M NaCl, and disrupted by treatment with lysozyme (10 μg/ml) for 20 min at 4° C. followed by sonication (6×30 sec pulses). The lysates are clarified by centrifugation (10,000×g; 20 min) and the supernatant solutions incubated with 5 ml of hydrated heparin Sepharose (Pharmacia/LKB) at 4° C. for 1 hour with constant rotation. The resin is isolated by filtration on 0.8 μm filter apparatus (Nalgene), washed extensively with 10 mM Tris-HCl pH 7.4 containing 0.6M NaCl and bound protein eluted with Tris buffer containing 3M NaCl (25 ml). The 3M NaCl eluent is diluted 6-fold with Tris buffer and loaded onto a TSK heparin 5PW column (0.21×15 cm; The Nest Group, MA) and the column developed using a linear NaCl gradient (0.6 to 2M) in 90 min at a flow rate of […].
NaCl elution from heparin-Sepharose® is about 0.7M NaCl, compared with 1.4M NaCl for the wild-type protein. The molarity of NaCl required to elute the LK mutant is similar to that required to elute FGF-7.

In a further test the test system is neovascularization. The test can be described thus: In vivo angiogenesis, rabbit ear chamber model. The protocol: In an in vivo model of angiogenesis, FGF-2LI is evaluated using the rabbit ear chamber system modified and improved by Howden, G. F., and Silver, I. A., (Int. Endodontic J. 13: 3-16 (1980)), observing the growth factor-induced neovascularization, or its inhibition, by modified growth factors or other reagents.
Rabbits are sedated using 50-70 mg/kg ketamine and 10 mg/kg xylozine administered intramuscularly. The ears are shaved with an electric hair clipper and cleaned with water, followed by Betadine®. To minimize the risk of infection, the rabbits are given 20,000 units/kg benzathine penicillin intramuscularly prior to insertion of the ear chambers. The chamber is inserted into an approximately 0.75 cm area which is not crossed by any major vessels. During the course of the experiments, observations or any minor handling of ear chambers of the animals is done by sedating the animal using the intramuscular administration of a combination of Butorphanol® and acepromazine at levels of 1 mg/kg each. FGF-2 or FGF-2LI bound to heparin-Sepharose® beads in a controlled-release alginate capsule is contained in one of the ear chambers and the other is used as a control containing only the heparin-Sepharose® alginate capsule vehicle. Thus, the effect of the growth factors and the controlled-release capsule alone can be observed simultaneously in the same animal. […] The animals are kept for 4 to 6 weeks and neovascularization is observed visually and recorded photographically at weekly intervals.
The criteria for evaluation of the degree of neovascularization using this procedure is set out below.

Entries after “also recorded” stand apart in the source; their conditions may differ.

Take FGF-1: acidic fibroblast growth factor: the “Capacity to compete with 125I-FGF-2 binding to FGF receptors on BHK cells” value in test [1] is “affinity equal to that of FGF-2”. Moreover, the “Binding to soluble FGFR1 (competition with 125I-FGF-2)” value (from here on “Binding to soluble FGFR1”) in test [2] is “bind equally well”. Also, the “Binding to soluble FGFR2(IIIb) (competition with 125I-FGF-7)” value (“Binding to soluble FGFR2(IIIb)” for short) in test [3] is “bind with the same affinity”. In addition, the “Cross-linking to FGFR1” value in the test with FGFR1 is given as “bind”. Besides, in the test with FGFR2(IIIb), the “Cross-linking to FGFR2(IIIb)” value was “bind”.
“FGF-2: basic fibroblast growth factor, wild-type factor used as comparator (NNYNTYRSRKYTSWYVALKRT) [reference compound]”: the “NaCl concentration at elution from TSK-heparin column” value in test [4] (TSK-heparin column) is recorded as “about 1.5 M”. In addition, in test [4] (heparin-Sepharose), the “NaCl elution from heparin-Sepharose” value is recorded as 1.4 M. The “Angiogenesis at 400 ng/chamber” value in the test with neovascularization (400 ng/chamber) is “completely inhibited”. Also, the “Concentration range over which stimulatory activity is observed” value with neovascularization (rabbit ear chamber) is on record as 10-100 ng/chamber. In addition, the “Potential to induce angiogenesis (neovascularization)” value with neovascularization (rabbit ear chamber, controlled-release alginate capsule) is reported as “dose-dependent induction of new blood vessels”. In addition, in the test with neovascularization (rabbit ear chamber, versus control chambers), the “Vessel formation in the chamber” value is “stimulate large vessel formation”. Besides, in test [2], the “Binding to soluble FGFR1” value is recorded as “bind equally well”. Besides, the “Binding to soluble FGFR2(IIIb)” value in test [3] was “do not bind; also recorded: does not compete”. In addition, in the test with FGFR1, the “Cross-linking to FGFR1” value is reported as “bind”. Moreover, the “Cross-linking to FGFR2(IIIb)” value in the test with FGFR2(IIIb) is given as “excluded from binding”.
For the substance “FGF-7: fibroblast growth factor-7, also known as keratinocyte growth factor or KGF (NHYNTYASAKWTHNGGEMFVALNQK)”, the “Binding to soluble FGFR1” value in test [2] is listed as “no binding”. In addition, in test [3], the “Binding to soluble FGFR2(IIIb)” value was “bind with the same affinity”. Moreover, the “Cross-linking to FGFR1” value with FGFR1 is reported as “not detected”. The “Cross-linking to FGFR2(IIIb)” value in the test with FGFR2(IIIb) is listed as “bind”.
Take “hrIL-1β: human recombinant interleukin-1β (Biogen) [reference compound]”: the “Capacity to compete with 125I-FGF-2 binding to FGF receptors on BHK cells” value in test [1] is listed as “no binding”.
